Results on 4 compounds are retold here after publication PMC6259141, “Phytochemical and Cytotoxic Investigations of Alpinia mutica Rhizomes” (Molecules, 2011).

Data set [1] concerns HT29 (colon carcinoma cell line). The experiment in a line: in vitro neutral red cytotoxicity assay, HT29. The format is cell-based. The note with it: Homo sapiens, HT-29, HT29 cells, averaged from three experiments, read-out: Cytotoxic activity IC50, HT29.
Text: (§1) The in vitro cytotoxic activity was studied by the neutral red cytotoxicity assay [5]. KB (epidermoid carcinoma cell line), MCF7 (hormone-dependent breast carcinoma cell line), A549 (lung carcinoma cell line), CaSki (cervical carcinoma cell line), HCT116 (colon carcinoma cell line), HT29 (colon carcinoma cell line) and non-human fibroblast cell line (MRC 5) were purchased from the American Tissue Culture Collection (ATCC).
The subject of data set [2] is MCF7 (hormone-dependent breast carcinoma cell line). The experiment in a line: in vitro neutral red cytotoxicity assay, MCF7. The conditions noted are these: Homo sapiens, MCF7, read-out: Cytotoxic activity IC50, MCF7.
Text: as §1
Data set [3] relates to HCT116 (colon carcinoma cell line). The experiment in a line: in vitro neutral red cytotoxicity assay, HCT116. The note with it: Homo sapiens, HCT-116, read-out: Cytotoxic activity IC50, HCT116.
Text: as §1
The subject of data set [4] is A549 (lung carcinoma cell line). Briefly: in vitro neutral red cytotoxicity assay, A549. It counts as cell-based. The note with it: Homo sapiens, A549 cells, averaged from three experiments, read-out: Cytotoxic activity IC50, A549.
Text: as §1
Data set [5] is described as follows: in vitro neutral red cytotoxicity assay, MRC5. The conditions noted are these: human, MRC5 fibroblast cells (normal, non-cancer).
Text: as §1
Data set [6] relates to CaSki (cervical carcinoma cell line). Briefly: in vitro neutral red cytotoxicity assay, CaSki. The conditions noted are these: Homo sapiens, Ca-Ski, read-out: Cytotoxic activity IC50, CaSki.
Text: as §1
For data set [7], the system named is KB (epidermoid carcinoma cell line). The experiment in a line: in vitro neutral red cytotoxicity assay, KB. The note with it: Homo sapiens, read-out: Cytotoxic activity IC50, KB.
Text: as §1
Data set [8] shares this test system.
Text: as §1
Data set [9] has as its system MCF7 (hormone-dependent breast carcinoma cell line).
Text: as §1
In data set [10] the test system is HCT116 (colon carcinoma cell line).
Text: as §1
Data set [11] relates to MRC5 fibroblast cell line (non-cancer).
Text: as §1
The subject of data set [12] is CaSki (cervical carcinoma cell line).
Text: as §1

Values after ≈ are worked out from the molar mass of the structure shown.

Broadly, the IC50 is the point on the concentration scale where inhibition reaches its midpoint. In the case of `COc1cccc2c1C(=O)c1c(O)c3c(c(O)c1C2=O)C[C@@](O)(C(=O)CO)C[C@@H]3O[C@H]1C[C@H](N)[C@H](O)[C@H](C)O1` [Doxorubicin, reference compound], the IC50 in [1] was determined as 0.33 ± 0.03 µg/mL (≈ 0.607 µM); in data set [2], 0.05 ± 0.01 µg/mL (≈ 0.092 µM); in data set [3], 0.24 ± 0.04 µg/mL (≈ 0.442 µM); in [4], 0.58 ± 0.01 µg/mL (≈ 1.07 µM); in data set [5] it was 0.4 ± 0.03 µg/mL (≈ 0.736 µM); in [6], 0.18 ± 0.06 µg/mL (≈ 0.331 µM).

For `COc1cc(O)c(C(=O)/C=C/c2ccccc2)c(OC)c1` [Flavokawin B (1), flavokawin B], the IC50 in [7] amounted to 5.7 ± 0.4 µg/mL (≈ 20 µM); in data set [2], 49.3 ± 1.8 µg/mL (≈ 173 µM); in data set [3] it was 6.4 ± 0.2 µg/mL (≈ 22.5 µM); in data set [5], 17.2 ± 0.5 µg/mL (≈ 60.5 µM); in [6], 31.1 ± 1.3 µg/mL (≈ 109 µM).

As to `COc1cc(O)c(C(=O)/C=C/c2ccccc2)c(O)c1` [Pinostrobin chalcone (3), pinostrobin chalcone], the 50% inhibitory concentration (IC50) was found to be 6.2 ± 0.2 µg/mL (≈ 22.9 µM) in data set [7]; 7.3 ± 0.6 µg/mL (≈ 27 µM) in data set [2]; 54.1 ± 4.6 µg/mL (≈ 200 µM) in data set [3]; 7.9 ± 0.8 µg/mL (≈ 29.2 µM) in data set [5]; 7.7 ± 0.2 µg/mL (≈ 28.5 µM) in data set [6].

As to alpinetin [Alpinetin (4)], the “Cytotoxic activity IC50, KB” value in data set [8] is reported as >100 µg/mL. The “Cytotoxic activity IC50, MCF7” value in data set [9] is > 100 µg/mL. The “Cytotoxic activity IC50, HCT116” value in data set [10] was determined as 39.6 ± 2.0 µg/mL. In addition, in data set [11], the “Cytotoxic activity IC50, MRC5” value was > 100 µg/mL. Moreover, the “Cytotoxic activity IC50, CaSki” value in [12] was >100 µg/mL.
